Where a name gives a salt, the structure may show the parent alone.
Columns and labels:
σ-1 = conditions: quantity type not given; cited from earlier work
σ-2 = conditions: quantity type not given; cited from earlier work
sigma-2 receptors = molecular target: T1, sigma-2 receptors (Rattus norvegicus, UniProt Q5U3Y7); test: sigma-2 receptor radioligand binding
T1 sequence (Q5U3Y7 1-176): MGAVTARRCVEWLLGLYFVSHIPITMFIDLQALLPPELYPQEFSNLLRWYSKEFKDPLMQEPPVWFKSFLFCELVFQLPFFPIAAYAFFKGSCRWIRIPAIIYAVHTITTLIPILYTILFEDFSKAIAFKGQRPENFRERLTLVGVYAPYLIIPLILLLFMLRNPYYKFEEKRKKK

σ-1/σ-2 selectivity ratio (sigma-2 receptors) | Structure (SMILES) | σ-1 affinity (σ-1) | σ-2 affinity (σ-2) [nM]
– | COc1cc2c(cc1OC)CN(CCCCNC(=O)c1cc(Br)cc(OC)c1OC)CC2 [5-bromo-N-(4-(6,7-dimethoxy-3,4-dihydroisoquinolin-2(1H)-yl)butyl)-2,3-dimethoxybenzamide] | 12,900 nM | 8.2
– | Fc1ccc(-n2cc(CCCCN3CCC4(CC3)OCc3ccccc34)c3ccccc32)cc1 [Siramesine] | 17 nM | –
5 | Fc1ccc(N2CCN(CCCCn3ccc4ccccc43)CC2)cc1 [4b, 1-(4-(4-(4-Fluorophenyl)piperazin-1-yl)butyl)indole oxalate] | – | –
